Assay results published in patent US11179389B2, “Purine inhibitors of human phosphatidylinositol 3-kinase delta” (Merck Sharp & Dohme Corp., priority 2017, dated 2021).

Tests used:
[1] = target: PI3Kdelta (Homo sapiens (Human), UniProt O00329); test: HTRF PI3K biochemical assay, delta isoform; conditions: 0.3 nM enzyme, 100 uM ATP, 5 uM PIP2, form screened per table (Neutral or TFA salt)
Description: (§1) HTRF PI3K Biochemical Assay to Measure Intrinsic Potency of Compound Inhibitors
(§2) The PI3-Kinase biochemical assays were developed to measure the intrinsic potency and compound dependent inhibition of the alpha, beta, delta, and gamma PI3K isoform enzymes. This assay was developed and further optimized from a kit produced by Upstate (Millipore catalog #33-047) (Millipore Sigma. Billerica Mass., USA) and has been configured for high throughput screening (HTS) and structure-activity relationship (SAR) screening. Briefly, this procedure exploits the exquisite specificity and high affinity binding of enzyme reaction […] phosphatidyl(3,4,5)triphosphate (PIP3) to the GRP1 pleckstrin homology (PH) domain to generate the signal. In the absence of PIP3, an HTRF (Homogeneous Time-Resolved Fluorescence energy transfer) complex is formed consisting of europium (Eu)-labeled anti-GST, GSTtagged GRP1-PH domain, biotin-PIP3 (biotinylated-PIP3) and streptavidin conjugated APC (Allophycocyanin). The native PIP3 produced by PI3-Kinase activity disrupts in a competitive manner the biotin-PIP3 from the pleckstrin homology (PH) domain, resulting in the loss of energy transfer (HTRF complex) and a decrease in the signal. The format of this assay is the same for all 4 isoforms of PI3K; the differences lie in the concentration of enzyme used to achieve robust assay window. The alpha, beta, and delta assays are run at 0.5, 1, and 0.3 nM enzymes and the gamma assay is run at 5 nM enzyme. The ATP concentration is 100 uM in the alpha, beta, and delta assays and 50 uM adenosine triphosphate (ATP) in the gamma assay. All reactions are run at 5 uM PIP2.
(§3) Compounds are serially diluted (3-fold in 100% DMSO) across a 384-well polypropylene source plated from column 3 to column 12 and column 13 to column 22, to yield 10 concentration dose response for each test compound. Columns 1, 2, 23 and 24 contain either only DMSO or pharmacological known control inhibitor. Once titrations are made, 2.5 nL of the compounds on 384 well plates are reformatted and transferred by acoustic dispense in quadruplicates to a 1536 assay plate (Greiner) to assay across all four PI3K isoform enzymes.
(§4) The PI3-Kinase biochemical assay was optimized using the HTRF kit provided by Upstate (Millipore). The assay kit contains six reagents: 1) 4×Reaction Buffer; 2) native PIP2 (substrate); 3) Stop (EDTA); 4) Detection Mix A (Streptavidin-APC); 5) Detection Mix B (Eu-labeled Anti-GST plus GST-tagged PH-domain): 6) Detection Mix C. In addition, the following items were obtained or purchased; PI3Kinase (catalog #'s alpha 14-602, beta 14-603, gamma 14-558 and delta 14-604 from Upstate Biotechnology now EMD Millipore, Mahopac, N.Y., USA), dithiothreitol (Sigma-Aldrich Corp. (St. Louis, Mo., USA) Catalog #D-5545), Adenosine-5′ triphosphate (InVitrogen (Waltham, Mass., USA), Cat#AS001 Å), native PIP3 (PI(3,4,5)P3, diC8, H^+, CELLSIGNALS, INC., (Columbus, Ohio, USA) Cat #907) DMSO ((Sigma-Aldrich Corp. (St. Louis. Mo., USA) Catalog #472301).
(§5) PI3Kinase Reaction Buffer is prepared by dilution the stock 1:4 with de-ionized water. DTT (DL-Dithiothreitol), phosphatidylinositol 4,5-bisphosphate (PIP2) and Biotin-PIP3 were added to 1536 assay plate at a final concentration of 5 mM, […] and 25 nM on the day of use. Enzyme addition and compound pre-incubation are initiated by the addition of 1.25 ul of PI3K (at twice its final concentration) in the 1× reaction buffer to all wells using a BioRaptor™. Plates are incubated at room temperature for 15 minutes. Reactions are initiated by addition of 1.25 ul of 2× substrate solution (PIP2 and ATP in 1× reaction buffer) using BioRaptor™. Plates are incubated in humidified chamber at room temperature for one hour. Reactions are quenched by addition of 0.625 uL of stop solution to all wells using the BioRaptor™. […]

[2] = target: PI3Kalpha (Homo sapiens (Human), UniProt P42336); test: HTRF PI3K biochemical assay, alpha isoform (for selectivity ratio); conditions: ratio PI3K-alpha IC50 value / PI3K-delta IC50 value
Description: as §1, §2, §3, §4, §5

Sequence of PI3Kalpha (P42336 whole entry, canonical isoform): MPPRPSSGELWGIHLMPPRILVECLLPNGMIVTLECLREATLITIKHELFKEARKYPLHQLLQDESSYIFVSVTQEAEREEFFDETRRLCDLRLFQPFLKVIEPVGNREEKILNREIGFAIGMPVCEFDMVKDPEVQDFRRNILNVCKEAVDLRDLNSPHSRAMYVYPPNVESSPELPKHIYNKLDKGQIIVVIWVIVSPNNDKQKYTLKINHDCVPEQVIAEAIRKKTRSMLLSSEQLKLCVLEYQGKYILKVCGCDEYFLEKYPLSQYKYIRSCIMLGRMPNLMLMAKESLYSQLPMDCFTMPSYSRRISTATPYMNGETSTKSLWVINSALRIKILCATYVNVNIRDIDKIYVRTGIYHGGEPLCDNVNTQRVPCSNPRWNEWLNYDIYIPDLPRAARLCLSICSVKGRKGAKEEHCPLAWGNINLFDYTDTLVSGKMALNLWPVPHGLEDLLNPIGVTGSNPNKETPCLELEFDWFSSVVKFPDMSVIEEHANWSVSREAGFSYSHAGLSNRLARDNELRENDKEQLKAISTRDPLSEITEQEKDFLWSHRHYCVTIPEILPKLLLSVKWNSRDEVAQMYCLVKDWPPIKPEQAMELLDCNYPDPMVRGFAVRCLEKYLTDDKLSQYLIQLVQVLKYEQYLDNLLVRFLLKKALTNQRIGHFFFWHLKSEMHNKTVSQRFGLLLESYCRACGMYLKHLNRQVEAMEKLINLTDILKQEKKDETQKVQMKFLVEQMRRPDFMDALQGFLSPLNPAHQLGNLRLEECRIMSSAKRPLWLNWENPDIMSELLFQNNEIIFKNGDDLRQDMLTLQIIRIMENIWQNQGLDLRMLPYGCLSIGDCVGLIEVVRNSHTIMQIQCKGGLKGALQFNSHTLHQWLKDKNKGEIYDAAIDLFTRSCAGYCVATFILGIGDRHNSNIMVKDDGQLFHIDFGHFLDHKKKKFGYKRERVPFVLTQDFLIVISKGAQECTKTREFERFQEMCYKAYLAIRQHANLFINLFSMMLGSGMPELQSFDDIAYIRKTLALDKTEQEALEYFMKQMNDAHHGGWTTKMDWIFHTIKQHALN
Sequence of PI3Kalpha (P27986 whole entry partner, canonical isoform): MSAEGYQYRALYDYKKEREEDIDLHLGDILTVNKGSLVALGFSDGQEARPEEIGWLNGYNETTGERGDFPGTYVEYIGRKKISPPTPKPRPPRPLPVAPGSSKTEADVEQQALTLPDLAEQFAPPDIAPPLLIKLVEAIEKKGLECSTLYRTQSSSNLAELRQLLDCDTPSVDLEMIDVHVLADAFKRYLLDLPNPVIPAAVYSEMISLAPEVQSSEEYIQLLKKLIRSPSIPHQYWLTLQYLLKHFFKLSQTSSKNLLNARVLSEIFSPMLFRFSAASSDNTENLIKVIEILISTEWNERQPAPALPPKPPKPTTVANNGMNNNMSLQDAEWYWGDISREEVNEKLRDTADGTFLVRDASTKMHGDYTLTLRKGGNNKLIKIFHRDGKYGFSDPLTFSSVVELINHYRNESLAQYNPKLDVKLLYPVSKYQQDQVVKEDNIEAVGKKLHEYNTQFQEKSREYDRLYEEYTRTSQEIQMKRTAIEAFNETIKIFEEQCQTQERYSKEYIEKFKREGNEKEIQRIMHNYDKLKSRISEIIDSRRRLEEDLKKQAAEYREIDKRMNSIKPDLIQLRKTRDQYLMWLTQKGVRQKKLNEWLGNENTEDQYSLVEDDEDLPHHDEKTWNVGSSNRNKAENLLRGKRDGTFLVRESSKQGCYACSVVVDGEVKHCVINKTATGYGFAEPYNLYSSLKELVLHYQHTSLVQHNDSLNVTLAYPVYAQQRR
Sequence of PI3Kdelta (O00329 whole entry, canonical isoform): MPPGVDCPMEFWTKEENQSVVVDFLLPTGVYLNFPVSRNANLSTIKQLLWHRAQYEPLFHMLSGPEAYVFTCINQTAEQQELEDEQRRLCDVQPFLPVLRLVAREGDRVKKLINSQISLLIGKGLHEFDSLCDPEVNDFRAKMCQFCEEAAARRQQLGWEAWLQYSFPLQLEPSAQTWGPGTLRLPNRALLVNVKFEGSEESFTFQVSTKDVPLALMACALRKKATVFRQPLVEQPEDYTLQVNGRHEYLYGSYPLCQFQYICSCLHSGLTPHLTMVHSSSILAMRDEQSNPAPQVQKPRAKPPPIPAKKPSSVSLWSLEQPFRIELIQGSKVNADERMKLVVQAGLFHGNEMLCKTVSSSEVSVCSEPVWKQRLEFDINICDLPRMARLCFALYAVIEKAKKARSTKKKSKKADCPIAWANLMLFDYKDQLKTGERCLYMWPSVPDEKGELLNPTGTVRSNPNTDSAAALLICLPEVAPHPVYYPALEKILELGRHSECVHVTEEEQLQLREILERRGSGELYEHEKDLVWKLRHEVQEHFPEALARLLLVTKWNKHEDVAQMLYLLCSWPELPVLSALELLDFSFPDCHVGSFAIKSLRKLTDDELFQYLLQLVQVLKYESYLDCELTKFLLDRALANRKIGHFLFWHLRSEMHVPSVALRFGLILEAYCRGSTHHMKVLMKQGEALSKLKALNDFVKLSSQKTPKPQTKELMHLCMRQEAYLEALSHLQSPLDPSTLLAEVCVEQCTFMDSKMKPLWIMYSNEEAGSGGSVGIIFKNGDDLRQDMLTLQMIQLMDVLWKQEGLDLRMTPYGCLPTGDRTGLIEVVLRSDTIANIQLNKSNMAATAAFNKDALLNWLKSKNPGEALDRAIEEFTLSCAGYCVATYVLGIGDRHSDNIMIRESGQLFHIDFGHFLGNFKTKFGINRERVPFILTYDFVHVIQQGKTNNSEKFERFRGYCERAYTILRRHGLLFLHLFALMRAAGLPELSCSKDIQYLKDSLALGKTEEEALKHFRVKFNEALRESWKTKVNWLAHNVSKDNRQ
Sequence of PI3Kdelta (P27986 whole entry partner, canonical isoform): as the sequence (P27986 whole entry partner, canonical isoform) above

Compound	IC50 [1]	Selectivity versus PI3Kalpha [2]
Cn1cc(-c2nc(N3CCC4(CC3)NC(=O)OC4CC3CC3)cnc2C#N)cn1 (single isomer, unassigned) [Compound 1-7, 5-[4-(cyclopropylmethyl)-2-oxo-3-oxa-1,8-diazaspiro[4.5]dec-8-yl]-3-(1-methyl-1H-pyrazol-4-yl)pyrazine-2-carbonitrile]	55 nM	>10
CCC1C(=O)NCC12CCN(c1cnc(C#N)c(-c3cnn(C)c3)n1)CC2 (single isomer, unassigned) [Compound 1-8, 5-(4-ethyl-3-oxo-2,8-diazaspiro[4.5]dec-8-yl)-3-(1-methyl-1H-pyrazol-4-yl)pyrazine-2-carbonitrile]	60 nM	>10
CC(C)CC1OC(=O)NCC12CCN(c1cnc(C#N)c(-c3cnn(C)c3)n1)CC2 (single isomer, unassigned) [Compound 1-10, 5-[1-(2-methylpropyl)-3-oxo-2-oxa-4,9-diazaspiro[5.5]undec-9-yl]-3-(1-methyl-1H-pyrazol-4-yl)pyrazine-2-carbonitrile]	30 nM	>10
CN(C)CCN1CC2(CCN(c3cnc(C#N)c(-c4cnn(C)c4)n3)CC2)N(CC2CC2)C1=O [Compound 1-4, 5-{1-(cyclopropylmethyl)-3-[2-(dimethylamino)ethyl]-2-oxo-1,3,8-triazaspiro[4.5]dec-8-yl}-3-(1-methyl-1H-pyrazol-4-yl)pyrazine-2-carbonitrile]	10 nM	>10
CC(N1C(=O)N(CCN(C)C)CC12CCN(c1cnc(C#N)c(-c3cnn(C)c3)n1)CC2)C(F)(F)F (stereo not shown) [Compound 1-5, 5-{3-[2-(dimethylamino)ethyl]-2-oxo-1-(2,2,2-trifluoro-1-methylethyl)-1,3,8-triazaspiro[4.5]dec-8-yl}-3-(1-methyl-1H-pyrazol-4-yl)pyrazine-2-carbonitrile]	7.2 nM	>10
C[C@@H]1CN(c2nc(-c3cnn(C)c3)cnc2C#N)CCN1C(=O)C1CC1 [Compound 1-13, 3-[(3R)-4-(cyclopropylcarbonyl)-3-methylpiperazin-1-yl]-5-(1-methyl-1H-pyrazol-4-yl)pyrazine-2-carbonitrile]	190 nM	>10
C[C@@H]1C[C@H]1C(=O)N1CCN(c2cnc(C#N)c(-c3cnn(C)c3)n2)C[C@H]1C [Compound 1-14, 5-[(3R)-3-methyl-4-{[(1R,2R)-2-methylcyclopropyl]carbonyl}piperazin-1-yl]-3-(1-methyl-1H-pyrazol-4-yl)pyrazine-2-carbonitrile]	8.9 nM	>10
C[C@@H]1CN(c2cnc(C#N)c(-c3cnn(C)c3)n2)CCN1C(=O)C1CC1 [Compound 1-15, 5-[(3R)-4-(cyclopropylcarbonyl)-3-methylpiperazin-1-yl]-3-(1-methyl-1H-pyrazol-4-yl)pyrazine-2-carbonitrile]	33 nM	>10
C[C@@H]1CN(c2cnc(C#N)c(-c3cnn(C)c3)n2)CCN1C(=O)NC1CC1 [Compound 1-16, (2R)-4-[5-cyano-6-(1-methyl-1H-pyrazol-4-yl)pyrazin-2-yl]-N-cyclopropyl-2-methylpiperazine-1-carboxamide]	280 nM	>10
C[C@@H]1C[C@H]1C(=O)N1CCN(c2cnc(C#N)c(-c3cnn(C(F)F)c3)n2)C[C@H]1C [Compound 1-17, 3-[1-(difluoromethyl)-1H-pyrazol-4-yl]-5-[(3R)-3-methyl-4-{[(1R,2R)-2-methylcyclopropyl]carbonyl}piperazin-1-yl]pyrazine-2-carbonitrile]	73 nM	>10
[2H]C([2H])([2H])n1cc(-c2nc(N3CCN(C(=O)C4CC4)[C@H](C)C3)cnc2C#N)cn1 [Compound 1-18, 5-[(3R)-4-(cyclopropylcarbonyl)-3-methylpiperazin-1-yl]-3-[1-(~2~H_3_)methyl-1H-pyrazol-4-yl]pyrazine-2-carbonitrile]	16 nM	>10
CC(C)C[C@@H]1CN(c2cnc(C#N)c(-c3cnn(C)c3)n2)CCN1C(=O)C1CC1 [Compound 1-19, 5-[(3R)-4-(cyclopropylcarbonyl)-3-(2-methylpropyl)piperazin-1-yl]-3-(1-methyl-1H-pyrazol-4-yl)pyrazine-2-carbonitrile]	39 nM	>10

The remaining lines, values ahead:

IC50 [1]	Selectivity versus PI3Kalpha [2]	Compound
5.4 nM	>10	Cn1cc(-c2nc(N3CCC4(CCC(=O)N4CC4CC4)CC3)cnc2C#N)cn1 [Compound 1-1, 5-[1-(cyclopropylmethyl)-2-oxo-1,8-diazaspiro[4.5]dec-8-yl]-3-(1-methyl-1H-pyrazol-4-yl)pyrazine-2-carbonitrile]
45 nM	>10	Cn1cc(-c2nc(N3CCC4(CC3)COC(=O)N4CC3(C)COC3)cnc2C#N)cn1 [Compound 1-2, 5-{1-[(3-methyloxetan-3-yl)methyl]-2-oxo-3-oxa-1,8-diazaspiro[4.5]dec-8-yl}-3-(1-methyl-1H-pyrazol-4-yl)pyrazine-2-carbonitrile]
9.7 nM	>10	Cn1cc(-c2nc(N3CCC4(CC3)CNC(=O)N4CC3CC3)cnc2C#N)cn1 [Compound 1-3, 5-[1-(cyclopropylmethyl)-2-oxo-1,3,8-triazaspiro[4.5]dec-8-yl]-3-(1-methyl-1H-pyrazol-4-yl)pyrazine-2-carbonitrile]
12 nM	>10	Cn1cc(-c2nc(N3CCC4(CC3)CNS(=O)(=O)N4CC3CC3)cnc2C#N)cn1 [Compound 1-6, 5-[1-(cyclopropylmethyl)-2,2-dioxido-2-thia-1,3,8-triazaspiro[4.5]dec-8-yl]-3-(1-methyl-1H-pyrazol-4-yl)pyrazine-2-carbonitrile]
18 nM	>10	COCCN1CC2(CCN(c3cnc(C#N)c(-c4cnn(C)c4)n3)CC2)N(CC2CC2)C1=O [Compound 1-9, 5-[1-(cyclopropylmethyl)-3-(2-methoxyethyl)-2-oxo-1,3,8-triazaspiro[4.5]dec-8-yl]-3-(1-methyl-1H-pyrazol-4-yl)pyrazine-2-carbonitrile]
32 nM	>10	Cn1cc(-c2nc(N3CCC4(CC3)CNC(=O)N4CC(F)(F)F)cnc2C#N)cn1 [Compound 1-11, 3-(1-methyl-1H-pyrazol-4-yl)-5-[2-oxo-1-(2,2,2-trifluoroethyl)-1,3,8-triazaspiro[4.5]dec-8-yl]pyrazine-2-carbonitrile]
54 nM	>10	N#Cc1ncc(N2CCC3(CC2)COC(=O)N3CC2CC2)nc1-c1cnn(C(F)F)c1 [Compound 1-12, 5-[1-(cyclopropylmethyl)-2-oxo-3-oxa-1,8-diazaspiro[4.5]dec-8-yl]-3-[1-(difluoromethyl)-1H-pyrazol-4-yl]pyrazine-2-carbonitrile]
18 nM	>10	Cn1cc(-c2nc(N3CCC4(CCC(=O)N4CC4CC(F)(F)C4)CC3)cnc2C#N)cn1 [Compound 1-20, 5-{1-[(3,3-difluorocyclobutyl)methyl]-2-oxo-1,8-diazaspiro[4.5]dec-8-yl}-3-(1-methyl-1H-pyrazol-4-yl)pyrazine-2-carbonitrile]
